Experimental data as given in patent US8138191B2, “Inhibitor compounds and cancer treatment methods” (Critical Outcome Technologies Inc., priority 2007, dated 2012).
pIC50: −log10 of the molar value. Where two headings read alike, the source gives them in different places.

Columns and labels:
[1] = test system: H226; test: in vitro IC50 against cancer cell lines, H226; format: cell-based; details: Homo sapiens, NCI-H226, 72 h; H226, NSCLC, 3 days
Protocol: Briefly, cells were plated in plastic tissue culture plates and grown under standard conditions for each cell line, in carbon dioxide/oxygen atmosphere in plastic tissue culture plates, in the presence of COTI-2 or COTI-219 compounds at 35° C. for 3 days. Control cultures were treated with vehicle minus compound. Cells were counted after 3 days in culture and at a cell density of no more than 80%. The following cell lines, obtained from the National Cancer Institute, were tested: human SCLC cell lines DMS153, DMS114, SHP77; human NSCLC cell lines H226, A460, A560; human breast cancer cell lines T47D, MCF7; human colon cancer cell line HT29; and, human Leukemia cell lines K562, HL60.

[2] = test system: total Akt protein in SHP-77 cells; test: Total Akt by western blot analysis, SHP-77; format: cell-based, human; details: SHP-77, 250 nM, after 24 hrs
Protocol: (§1) Cell viability was determined at 24, 48, and 96 hrs by the trypan exclusion method. Whole cell lysates were prepared using standard procedures and fifty micrograms of lysate protein was separated on SDS-PAGE gels and analyzed by western blotting.
(§2) Cell viability was determined at 24, 48, and 96 h by the trypan exclusion method. Whole cell lysates were prepared using standard procedures and 50 μg of lysate protein was separated on SDS-PAGE gels and analyzed by western blotting.

[3] = Metabolic Stability (liver microsomes, human); format: in vitro ADME
Protocol: Metabolic stability was determined in human (mixed gender and pool of 50) monkey (male Cynomolgus, pool of 6 or more), dog male, beagle, pool of 4 or more) and rat (male Sprague-Dawley, pool of 100 or more) liver microsomes. […] Four reference substrates (1 μM) were tested simultaneously with COTI-2. […] Peak areas corresponding to COTI-2 were recorded by HPLC-MS/MS. Metabolic stability, expressed as percent of COTI-2 remaining, was calculated by comparing the peak area of COTI-2 at 60 min to time zero.

[4] = molecular target: T1, CYP2C8 (Homo sapiens, UniProt P10632); test: in vitro; details: both
T1 sequence (P10632 1-490): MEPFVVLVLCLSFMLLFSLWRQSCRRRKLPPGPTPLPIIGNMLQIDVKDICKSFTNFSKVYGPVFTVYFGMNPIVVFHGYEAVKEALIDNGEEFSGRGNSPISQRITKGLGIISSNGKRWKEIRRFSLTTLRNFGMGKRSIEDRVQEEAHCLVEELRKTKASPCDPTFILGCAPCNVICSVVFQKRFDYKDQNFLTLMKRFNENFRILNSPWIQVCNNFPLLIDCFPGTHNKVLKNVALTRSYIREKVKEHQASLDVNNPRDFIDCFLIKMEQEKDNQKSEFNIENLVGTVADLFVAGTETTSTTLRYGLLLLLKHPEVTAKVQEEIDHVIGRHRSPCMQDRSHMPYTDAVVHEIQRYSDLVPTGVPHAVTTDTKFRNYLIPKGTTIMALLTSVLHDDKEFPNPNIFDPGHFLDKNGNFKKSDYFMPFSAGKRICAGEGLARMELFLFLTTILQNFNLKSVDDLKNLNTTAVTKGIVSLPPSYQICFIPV

[5] = molecular target: CYP2C19 (Homo sapiens, UniProt P33261); test: in vitro; details: both
Sequence of CYP2C19 (P33261 whole entry): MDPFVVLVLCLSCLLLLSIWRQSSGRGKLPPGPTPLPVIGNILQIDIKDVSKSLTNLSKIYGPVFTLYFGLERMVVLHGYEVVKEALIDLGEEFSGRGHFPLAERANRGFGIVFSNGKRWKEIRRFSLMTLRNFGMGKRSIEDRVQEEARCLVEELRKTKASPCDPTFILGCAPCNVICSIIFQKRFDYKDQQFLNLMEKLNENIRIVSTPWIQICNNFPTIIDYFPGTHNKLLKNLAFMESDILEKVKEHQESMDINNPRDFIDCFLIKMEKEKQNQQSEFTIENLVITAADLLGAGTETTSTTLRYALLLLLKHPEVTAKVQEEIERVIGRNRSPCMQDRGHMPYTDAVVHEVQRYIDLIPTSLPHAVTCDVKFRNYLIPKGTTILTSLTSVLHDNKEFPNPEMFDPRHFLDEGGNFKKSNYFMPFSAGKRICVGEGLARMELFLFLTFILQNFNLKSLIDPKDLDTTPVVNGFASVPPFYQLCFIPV

[6] = test system: total Akt protein in DMS-114 cells; test: Total Akt by western blot analysis, DMS-114; format: cell-based, human; details: DMS-114, 250 nM, after 24 hrs
Protocol: as §1, §2

[7] = test system: SHP 77 cells; test: Proliferation with anti-cancer agents plus COTI-2, SHP 77; format: cell-based, human
[8] = test system: HCT-116 human colon tumor xenograft; test: HCT-116 human colon tumor xenograft model; details: for Deaths: N 10
[9] = test system: A549; test: in vitro IC50 against cancer cell lines, A549; format: cell-based; details: Homo sapiens, 72 h; A549, NSCLC, 3 days
[10] = A-B Permeability (TC7, pH 7.4/7.4) + verapamil; format: in vitro ADME; details: human, Caco-2, pH 7.4, with verapamil (concentration not stated), 1.0E−05 M
[11] = test system: DMS-114 and SHP-77 SCLC cell lines; test: Cell viability by trypan blue exclusion; format: cell-based, human; details: 250 nM, within four days
Protocol: as §1, §2

[12] = molecular target: T2, P-glycoprotein (Homo sapiens, UniProt P08183); test: P-glycoprotein inhibition (TC7, 3H-digoxin substrate); format: in vitro ADME
T2 construct: endogenous in cells; host or cells: TC7 cells
T2 sequence (P08183 whole entry): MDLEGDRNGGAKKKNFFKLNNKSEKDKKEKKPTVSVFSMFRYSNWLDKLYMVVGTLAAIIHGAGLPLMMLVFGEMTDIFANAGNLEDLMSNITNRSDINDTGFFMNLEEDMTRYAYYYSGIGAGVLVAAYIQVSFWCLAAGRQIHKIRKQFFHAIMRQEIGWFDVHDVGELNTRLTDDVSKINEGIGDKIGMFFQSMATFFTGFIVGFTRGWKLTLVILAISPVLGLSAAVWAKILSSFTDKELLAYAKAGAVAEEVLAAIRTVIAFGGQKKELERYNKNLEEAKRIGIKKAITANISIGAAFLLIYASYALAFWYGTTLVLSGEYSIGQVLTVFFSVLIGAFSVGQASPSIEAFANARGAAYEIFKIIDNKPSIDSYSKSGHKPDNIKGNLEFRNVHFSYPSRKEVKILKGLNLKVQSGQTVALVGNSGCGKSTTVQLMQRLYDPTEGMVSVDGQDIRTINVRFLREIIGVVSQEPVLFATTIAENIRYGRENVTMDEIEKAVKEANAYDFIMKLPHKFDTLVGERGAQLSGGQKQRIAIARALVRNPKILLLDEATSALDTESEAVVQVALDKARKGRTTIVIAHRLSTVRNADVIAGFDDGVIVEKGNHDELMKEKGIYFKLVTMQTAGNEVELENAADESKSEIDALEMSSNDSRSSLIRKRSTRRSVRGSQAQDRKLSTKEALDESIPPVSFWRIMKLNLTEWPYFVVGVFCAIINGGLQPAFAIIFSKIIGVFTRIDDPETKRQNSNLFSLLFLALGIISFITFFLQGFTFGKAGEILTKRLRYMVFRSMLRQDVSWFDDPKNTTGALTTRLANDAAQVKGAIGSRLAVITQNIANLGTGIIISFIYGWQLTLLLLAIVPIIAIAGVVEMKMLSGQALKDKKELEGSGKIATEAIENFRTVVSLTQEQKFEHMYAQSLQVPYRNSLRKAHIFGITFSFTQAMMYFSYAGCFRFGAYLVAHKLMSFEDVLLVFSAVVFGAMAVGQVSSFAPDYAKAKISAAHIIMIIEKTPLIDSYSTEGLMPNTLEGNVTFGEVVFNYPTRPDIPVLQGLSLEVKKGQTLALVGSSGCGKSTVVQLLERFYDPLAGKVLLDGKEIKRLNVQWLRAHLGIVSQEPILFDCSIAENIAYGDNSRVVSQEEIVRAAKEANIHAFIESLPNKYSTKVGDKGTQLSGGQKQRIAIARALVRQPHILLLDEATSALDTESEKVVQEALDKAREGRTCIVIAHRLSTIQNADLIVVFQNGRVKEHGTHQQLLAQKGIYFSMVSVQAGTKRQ

[13] = molecular target: CYP3A (Homo sapiens, UniProt P08684); test: in vitro; details: both
Sequence of CYP3A (P08684 2-503): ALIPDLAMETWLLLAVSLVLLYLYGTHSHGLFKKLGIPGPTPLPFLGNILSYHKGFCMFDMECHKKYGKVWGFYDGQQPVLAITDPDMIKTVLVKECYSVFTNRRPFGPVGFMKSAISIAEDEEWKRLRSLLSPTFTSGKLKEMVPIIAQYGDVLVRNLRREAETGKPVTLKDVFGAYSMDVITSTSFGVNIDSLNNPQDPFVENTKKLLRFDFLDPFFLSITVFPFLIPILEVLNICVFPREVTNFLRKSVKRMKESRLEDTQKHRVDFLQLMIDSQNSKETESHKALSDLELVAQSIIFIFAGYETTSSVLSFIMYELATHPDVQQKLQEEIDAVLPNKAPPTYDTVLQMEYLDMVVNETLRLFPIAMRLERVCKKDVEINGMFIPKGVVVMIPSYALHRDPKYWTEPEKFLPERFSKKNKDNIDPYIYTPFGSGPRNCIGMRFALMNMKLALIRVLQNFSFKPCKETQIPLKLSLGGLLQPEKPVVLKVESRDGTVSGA

S=C(N/N=C1/CCCc2cccnc21)N1CCN(c2ccccn2)CC1 [COTI-2]
pIC50 [1]: 4.82
total Akt protein [2]: decreased
percent remaining at 60 min ([3]; 1.0 μM): 31%
Mean Parent Remaining ([3]; 1.0E−06 M, 60 min, mean): 31%
inhibition at 15 min, 10 µM ([4]; human liver microsomes, pH 7.4, probe paclitaxel (10 µM)): 10%
inhibition at 15 min, 10 µM ([4]; liver microsomes, pH 7.4, probe paclitaxel): < 50%
inhibition at 15 min, 10 µM ([5]; human liver microsomes, pH 7.4, probe omeprazole (10 µM)): 4%
inhibition at 15 min, 10 µM ([5]; liver microsomes, pH 7.4, probe omeprazole): < 50%
total Akt protein [6]: decreased
reduction of proliferation as a single agent ([7]; SHP 77, 31 nM): 25%
reduction of proliferation as a single agent ([7]; SHP 77, 73 nM): 25%
Day 15 Mean tumor weight ([8]; COTI-2 12.5 mg/kg IV): 1,471.3 ± 155.9 mg
Mean survival (Day ± SEM) ([8]; COTI-2 12.5 mg/kg IV): 12.8 ± 0.76 days
Maximum weight loss (%) (Day #) ([8]; COTI-2 12.5 mg/kg IV, Day 17): 20.96%
Deaths ([8]; COTI-2 12.5 mg/kg IV): 1
Day 15 Mean tumor weight ([8]; COTI-2 50.0 mg/kg IV): 1,353.4 ± 127.3 mg
Mean survival (Day ± SEM) ([8]; COTI-2 50.0 mg/kg IV): 12.6 ± 0.83 days
Maximum weight loss (%) (Day #) ([8]; COTI-2 50.0 mg/kg IV, Day 22): 18.43%
Deaths ([8]; COTI-2 50.0 mg/kg IV): 2
pIC50 [9]: 5.20
recovery at 10 µM ([10]; 1st determination, read-out: Percent Recovery 1st): 17%
recovery at 10 µM ([10]; 2nd determination, read-out: Percent Recovery 2nd): 13%
recovery at 10 µM ([10]; mean, read-out: Percent Recovery Mean): 15%
original tumor cells killed [11]: up to 80%
nH ([12]; P-glycoprotein Inhibition, TC7, 3H-digoxin substrate): 0.5
pIC50 ([12]; TC-7, radiolabelled digoxin, read-out: IC50, Pgp inhibition): 4.41
inhibition at 15 min, 10 µM ([13]; human liver microsomes, pH 7.4, probe midazolam (10 µM)): 7%
inhibition at 15 min, 10 µM ([13]; liver microsomes, pH 7.4, probe midazolam): < 50%
